# Measurements published in patent US10874108B2, “Anti-microbial compositions” (5D HEALTH PROTECTION GROUP LTD, priority 2016, dated 2020).
# Assays:
# [1] = Elution from loaded gauze; type: physicochemical
# Description: The gauzes were weighed before soaking, after soaking and after drying for 24 hours. To assess the elution profile of the EDTA complexes from gauze, the loaded gauzes were immersed in water and saline (Table 6 and Table 7). […] After day 2, the eluting of silver, zinc and EDTA decreased more than 5 times compared to day 1.
# [2] = Cumulative elution from carbopol hydrogel; type: physicochemical
# Description: Hydrogels were loaded with EDTA compounds and investigated for elution of the silver, zinc and EDTA. Carbopol ETD 2020 was obtained from Lubrizol Advanced Materials, Inc. USA. 1.2 g carbopol power was dissolved in 42.36 g deionized water for 1 hour to fully hydrate. Then 8.4 ml of the EDTA complexes and 4.8 g glycerine were added into carbopol solution with vigorous stirring; finally, 3 g 50% triethanolamine was dropped into the suspension to obtain final products: carbopol hydrogel with EDTA complexes.
# The silver, zinc and EDTA increased in saline day by day, which indicated the release of silver, zinc and EDTA can be controlled from the hydrogel.
# [3] = test system: cells; experiment: Direct cytotoxicity, Neutral Red Uptake assay
smiles,measurement,setting,value
"O=C([O-])CN(CCN(CC(=O)[O-])CC(=O)[O-])CC(=O)[O-].[Ag+].[Ag+].[Zn+2] [EDTA compound 4, sample 1]",Elution in saline (ppm) EDTA,[1]; day 1,24.65 ± 2.40 ppm
same,Elution in saline (ppm) Silver,[1]; day 1,49.91 ± 2.29 ppm
same,Elution in saline (ppm) Zinc,[1]; day 1,29.69 ± 2.40 ppm
same,Elution in water (ppm) EDTA,[1]; day 1,18.09 ± 3.19 ppm
same,Elution in water (ppm) Silver,[1]; day 1,35.89 ± 5.66 ppm
same,Elution in water (ppm) Zinc,[1]; day 1,21.99 ± 2.85 ppm
same,Elution in saline (ppm) EDTA,[1]; day 2,9.19 ± 3.42 ppm
same,Elution in saline (ppm) Silver,[1]; day 2,12.76 ± 4.44 ppm
same,Elution in saline (ppm) Zinc,[1]; day 2,9.14 ± 2.77 ppm
same,Elution in water (ppm) EDTA,[1]; day 2,12.54 ± 3.11 ppm
same,Elution in water (ppm) Silver,[1]; day 2,25.27 ± 5.63 ppm
same,Elution in water (ppm) Zinc,[1]; day 2,15.66 ± 2.73 ppm
same,Elution in saline (ppm) EDTA,[1]; day 3,1.83 ± 0.26 ppm
same,Elution in saline (ppm) Silver,[1]; day 3,3.43 ± 0.54 ppm
same,Elution in saline (ppm) Zinc,[1]; day 3,3.71 ± 0.27 ppm
same,Elution in water (ppm) EDTA,[1]; day 3,1.90 ± 0.79 ppm
same,Elution in water (ppm) Silver,[1]; day 3,4.93 ± 2.56 ppm
same,Elution in water (ppm) Zinc,[1]; day 3,4.42 ± 1.62 ppm
same,Elution in saline (ppm) EDTA,[1]; day 4,1.28 ± 0.84 ppm
same,Elution in saline (ppm) Silver,[1]; day 4,2.29 ± 1.73 ppm
same,Elution in saline (ppm) Zinc,[1]; day 4,3.42 ± 0.93 ppm
same,Elution in water (ppm) EDTA,[1]; day 4,1.27 ± 0.84 ppm
same,Elution in water (ppm) Silver,[1]; day 4,1.75 ± 0.76 ppm
same,Elution in water (ppm) Zinc,[1]; day 4,3.26 ± 0.35 ppm
same,Elution in saline (ppm) EDTA,[1]; day 5,0.45 ± 0.15 ppm
same,Elution in saline (ppm) Silver,[1]; day 5,2.52 ± 2.26 ppm
same,Elution in saline (ppm) Zinc,[1]; day 5,2.68 ± 2.00 ppm
same,Elution in water (ppm) EDTA,[1]; day 5,0.87 ± 0.36 ppm
same,Elution in water (ppm) Silver,[1]; day 5,0.85 ± 0.34 ppm
same,Elution in water (ppm) Zinc,[1]; day 5,2.06 ± 1.21 ppm
same,Elution in saline (ppm) EDTA,[2]; day 1,26.39 ± 2.06 ppm
same,Elution in saline (ppm) Silver,[2]; day 1,32.09 ± 3.02 ppm
same,Elution in saline (ppm) Zinc,[2]; day 1,22.12 ± 3.31 ppm
same,Elution in water (ppm) EDTA,[2]; day 1,31.12 ± 5.40 ppm
same,Elution in water (ppm) Silver,[2]; day 1,44.39 ± 5.98 ppm
same,Elution in water (ppm) Zinc,[2]; day 1,31.88 ± 3.53 ppm
same,Elution in saline (ppm) EDTA,[2]; day 2,27.18 ± 2.34 ppm
same,Elution in saline (ppm) Silver,[2]; day 2,37.09 ± 2.91 ppm
same,Elution in saline (ppm) Zinc,[2]; day 2,30.90 ± 5.81 ppm
same,Elution in water (ppm) EDTA,[2]; day 2,26.21 ± 4.20 ppm
same,Elution in water (ppm) Silver,[2]; day 2,47.13 ± 5.03 ppm
same,Elution in water (ppm) Zinc,[2]; day 2,36.09 ± 3.61 ppm
same,Elution in saline (ppm) EDTA,[2]; day 3,35.02 ± 0.72 ppm
same,Elution in saline (ppm) Silver,[2]; day 3,47.05 ± 2.79 ppm
same,Elution in saline (ppm) Zinc,[2]; day 3,36.73 ± 3.64 ppm
same,Elution in water (ppm) EDTA,[2]; day 3,37.28 ± 2.58 ppm
same,Elution in water (ppm) Silver,[2]; day 3,45.58 ± 4.54 ppm
same,Elution in water (ppm) Zinc,[2]; day 3,34.28 ± 4.55 ppm
same,Elution in saline (ppm) EDTA,[2]; day 4,37.71 ± 1.92 ppm
same,Elution in saline (ppm) Silver,[2]; day 4,51.24 ± 1.53 ppm
same,Elution in saline (ppm) Zinc,[2]; day 4,40.31 ± 1.84 ppm
same,Elution in water (ppm) EDTA,[2]; day 4,37.53 ± 3.27 ppm
same,Elution in water (ppm) Silver,[2]; day 4,46.88 ± 6.86 ppm
same,Elution in water (ppm) Zinc,[2]; day 4,33.78 ± 2.20 ppm
same,Elution in saline (ppm) EDTA,[2]; day 5,40.57 ± 1.41 ppm
same,Elution in saline (ppm) Silver,[2]; day 5,59.55 ± 1.21 ppm
same,Elution in saline (ppm) Zinc,[2]; day 5,43.22 ± 3.91 ppm
same,Elution in water (ppm) EDTA,[2]; day 5,35.11 ± 5.39 ppm
same,Elution in water (ppm) Silver,[2]; day 5,45.91 ± 7.04 ppm
same,Elution in water (ppm) Zinc,[2]; day 5,35.99 ± 1.16 ppm
"CCCCCCCCCCCCOS(=O)(=O)[O-].[Na+] [SDS, sodium dodecyl sulphate, reference compound]",Interpretation,[3]; 0.05 mg/ml,"Cytotoxic (if the percentage viability is less than 70% of the untreated control, then the substance is considered cytotoxic)"
same,Percentage of Control/Percentage Viability (%),[3]; 0.05 mg/ml,6.57 ± 0%
same,Interpretation,[3]; 0.1 mg/ml,"Cytotoxic (if the percentage viability is less than 70% of the untreated control, then the substance is considered cytotoxic)"
same,Percentage of Control/Percentage Viability (%),[3]; 0.1 mg/ml,6.57 ± 0%
same,Interpretation,[3]; 0.15 mg/ml,"Cytotoxic (if the percentage viability is less than 70% of the untreated control, then the substance is considered cytotoxic)"
same,Percentage of Control/Percentage Viability (%),[3]; 0.15 mg/ml,6.57 ± 0%
same,Interpretation,[3]; 0.2 mg/ml,"Cytotoxic (if the percentage viability is less than 70% of the untreated control, then the substance is considered cytotoxic)"
same,Percentage of Control/Percentage Viability (%),[3]; 0.2 mg/ml,6.57 ± 0%
"O=C([O-])CN(CCN(CC(=O)[O-])CC(=O)[O-])CC(=O)[O-].[Ag+].[Ag+].[Zn+2] [EDTA compound 4, sample 2]",Elution in saline (ppm) EDTA,[1]; day 1,17.31 ± 1.77 ppm
same,Elution in saline (ppm) Silver,[1]; day 1,27.32 ± 3.84 ppm
same,Elution in saline (ppm) Zinc,[1]; day 1,22.71 ± 1.75 ppm
same,Elution in water (ppm) EDTA,[1]; day 1,13.23 ± 1.28 ppm
same,Elution in water (ppm) Silver,[1]; day 1,23.32 ± 3.95 ppm
same,Elution in water (ppm) Zinc,[1]; day 1,17.08 ± 3.09 ppm
same,Elution in saline (ppm) EDTA,[1]; day 2,6.84 ± 2.67 ppm
same,Elution in saline (ppm) Silver,[1]; day 2,8.36 ± 2.37 ppm
same,Elution in saline (ppm) Zinc,[1]; day 2,7.67 ± 2.03 ppm
same,Elution in water (ppm) EDTA,[1]; day 2,8.74 ± 2.01 ppm
same,Elution in water (ppm) Silver,[1]; day 2,16.28 ± 3.75 ppm
same,Elution in water (ppm) Zinc,[1]; day 2,12.78 ± 1.55 ppm
same,Elution in saline (ppm) EDTA,[1]; day 3,1.75 ± 0.31 ppm
same,Elution in saline (ppm) Silver,[1]; day 3,2.55 ± 0.94 ppm
same,Elution in saline (ppm) Zinc,[1]; day 3,3.70 ± 0.20 ppm
same,Elution in water (ppm) EDTA,[1]; day 3,1.55 ± 0.56 ppm
same,Elution in water (ppm) Silver,[1]; day 3,3.82 ± 1.39 ppm
same,Elution in water (ppm) Zinc,[1]; day 3,4.21 ± 1.19 ppm
same,Elution in saline (ppm) EDTA,[1]; day 4,1.11 ± 0.61 ppm
same,Elution in saline (ppm) Silver,[1]; day 4,1.46 ± 0.99 ppm
same,Elution in saline (ppm) Zinc,[1]; day 4,3.48 ± 0.68 ppm
same,Elution in water (ppm) EDTA,[1]; day 4,1.13 ± 0.57 ppm
same,Elution in water (ppm) Silver,[1]; day 4,1.42 ± 0.40 ppm
same,Elution in water (ppm) Zinc,[1]; day 4,3.37 ± 0.26 ppm
same,Elution in saline (ppm) EDTA,[1]; day 5,0.54 ± 0.11 ppm
same,Elution in saline (ppm) Silver,[1]; day 5,1.57 ± 1.43 ppm
same,Elution in saline (ppm) Zinc,[1]; day 5,2.95 ± 1.46 ppm
same,Elution in water (ppm) EDTA,[1]; day 5,0.79 ± 0.19 ppm
same,Elution in water (ppm) Silver,[1]; day 5,0.59 ± 0.35 ppm
same,Elution in water (ppm) Zinc,[1]; day 5,2.49 ± 0.88 ppm
same,Elution in saline (ppm) EDTA,[2]; day 1,16.64 ± 1.41 ppm
same,Elution in saline (ppm) Silver,[2]; day 1,21.10 ± 1.80 ppm
same,Elution in saline (ppm) Zinc,[2]; day 1,15.30 ± 2.12 ppm
same,Elution in water (ppm) EDTA,[2]; day 1,20.80 ± 3.07 ppm
same,Elution in water (ppm) Silver,[2]; day 1,28.41 ± 3.48 ppm
same,Elution in water (ppm) Zinc,[2]; day 1,20.77 ± 3.25 ppm
same,Elution in saline (ppm) EDTA,[2]; day 2,17.31 ± 1.43 ppm
same,Elution in saline (ppm) Silver,[2]; day 2,26.06 ± 2.03 ppm
same,Elution in saline (ppm) Zinc,[2]; day 2,20.51 ± 3.94 ppm
same,Elution in water (ppm) EDTA,[2]; day 2,22.50 ± 2.86 ppm
same,Elution in water (ppm) Silver,[2]; day 2,29.03 ± 4.71 ppm
same,Elution in water (ppm) Zinc,[2]; day 2,23.57 ± 2.12 ppm
same,Elution in saline (ppm) EDTA,[2]; day 3,21.81 ± 0.42 ppm
same,Elution in saline (ppm) Silver,[2]; day 3,31.27 ± 0.96 ppm
same,Elution in saline (ppm) Zinc,[2]; day 3,23.98 ± 1.92 ppm
same,Elution in water (ppm) EDTA,[2]; day 3,24.64 ± 1.57 ppm
same,Elution in water (ppm) Silver,[2]; day 3,29.12 ± 2.73 ppm
same,Elution in water (ppm) Zinc,[2]; day 3,22.53 ± 7.30 ppm
same,Elution in saline (ppm) EDTA,[2]; day 4,22.70 ± 1.70 ppm
same,Elution in saline (ppm) Silver,[2]; day 4,32.50 ± 0.96 ppm
same,Elution in saline (ppm) Zinc,[2]; day 4,26.11 ± 1.08 ppm
same,Elution in water (ppm) EDTA,[2]; day 4,24.30 ± 1.51 ppm
same,Elution in water (ppm) Silver,[2]; day 4,29.89 ± 3.51 ppm
same,Elution in water (ppm) Zinc,[2]; day 4,22.23 ± 1.97 ppm
same,Elution in saline (ppm) EDTA,[2]; day 5,25.02 ± 0.96 ppm
same,Elution in saline (ppm) Silver,[2]; day 5,37.54 ± 0.61 ppm
same,Elution in saline (ppm) Zinc,[2]; day 5,27.28 ± 3.01 ppm
same,Elution in water (ppm) EDTA,[2]; day 5,23.03 ± 3.46 ppm
same,Elution in water (ppm) Silver,[2]; day 5,30.64 ± 5.25 ppm
same,Elution in water (ppm) Zinc,[2]; day 5,23.54 ± 1.23 ppm
